Here are results for 21 compounds from patent US9926304B2, “1-(arylmethyl)quinazoline-2,4(1H,3H)-diones as PARP inhibitors and the use thereof” (Impact Therapeutics, Inc., priority 2011, dated 2018).

Experiment [1] concerns Human breast cancer cell line T47D. The experiment is described as follows: Cell based caspase-3 activity assay: potentiation of MMS induced apoptosis. The conditions noted are these: Homo sapiens, T47D, 24 h, T47D cells, 11.1 μg/ml MMS, 24 hours, intracellular caspase-3 activity; read-out: EC50 (nM), potentiation of the apoptosis inducing activity of MMS. The method in brief: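 T47D cells were exposed for 24 h to compound plus a minimally apoptotic MMS dose (medium containing 11.1 μg/ml MMS). Lysates were incubated 3 h at 37 °C with (Ac-DEVD)2-R110 caspase-3 substrate (20 μM in added buffer) and read at ex 496/em 520 nm. EC50 came from a sigmoidal fit of RFU versus log concentration.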

Experiment [2] relates to SW620 human colorectal cancer cells. Put plainly: MTT based cell viability assay: potentiation of the growth inhibiting activity of MMS. The note with it: Homo sapiens, SW-620, 120 h, read-out: IC50 (nM), potentiation of the growth inhibiting activity of MMS, SW620 cells, 1.7 μg/ml MMS, 5 days (120 hours), MTT.
In experiment [3] the test system is BRCA-2 deficient CAPAN-1 human pancreatic cancer cells. The experiment is described as follows: MTT based cell viability assay: growth inhibition of BRCA-2 deficient CAPAN-1 cells. The note with it: 240 h, compound alone, 10 day assay. The source says: Determination of the cell growth inhibiting activity of 1-(3-(4-(pyrimidin-2-yl)piperazine-1-carbonyl)benzyl)quinazoline-2,4(1H,3H)-dione and analogs on BRCA-2 deficient CAPAN-1 pancreatic duck cancer cells using a MTT based cell viability assay
BRCA-deficient cancer cells are sensitive to PARP inhibition. In the presence of PARP inhibitors, BRCA-deficient cancer cells could not grow and eventually will lead to death of cells. BRCA-2 deficient CAPAN-1 human pancreatic cancer cells were used to test the growth inhibiting activity of substituted 1-(arylmethyl)quinazoline-2,4(1H,3H)-diones. Briefly, CAPAN-1 cells are grown and maintained in IMEM medium supplemented with 20% FBS. The assay takes 10 days to finish. On day 1, 6000 CAPAN-1 cells are seeded to each well of a 96-well plate. The cells are incubated at 37° C. in a cell culture incubator overnight. In the next day, serial dilutions of compounds to be tested and reference compound (AZD2281) were prepared with a 1:3 and 1:10 fashion in DMSO. Ten-fold compound solutions were made by mixing 10 μl DMSO serial dilution solutions with 90 μl fresh growth medium. The cell culture medium was removed and 180 μl fresh media with FBS and 20 μl of compound solutions were added to each well. The final concentration of DMSO was 1%. Cells were then returned to the CO2 cell culture incubator and incubated at 37° C. for two days (day 3 and day 4). On day 5, the same procedure as what was done on day 2 was repeated. Cell culture medium was removed and fresh medium containing serial dilutions of compounds or reference compounds were added. Cells were returned to the CO2 cell culture incubator and incubated for two more days. On day 8, same procedure was repeated again and fresh medium containing the testing compounds or reference compounds were added and incubated for an additional 2 days. On day 10, 20 μl of MTT reagent (5 mg/ml) was added to each well of the cell culture plate and incubated for 4 h. The cell culture media was removed and 100 μl DMSO was added to each well. The 96-well cell culture plates were shaked horizontally for 10 min and readed in a Varioskan Flash plate reader (Thermo Fisher Scientific) at 520 and 690 nm. The obtained 520 nm absorbance readings subtracting corresponding 690 nm reading were analyzed using a commercial graphic software (GraphPad Prism 5) and plotted against the Log scale of the compound concentrations.

As to `O=C(c1ccc(F)c(Cn2c(=O)[nH]c(=O)c3ccccc32)c1)N1CCN(c2ccccn2)CC1` [Example 51, 1-(6-Fluoro-3-(4-(pyridin-2-yl)piperazine-1-carbonyl)benzyl)quinazoline-2,4(1H,3H)-dione], the EC50 in experiment [1] is 20 nM. In addition, the results for the IC50 in experiment [2] and in experiment [3] were 33 nM and 402 nM, respectively.
The corresponding values for `O=C(c1ccc(Cl)c(Cn2c(=O)[nH]c(=O)c3ccccc32)c1)N1CCN(c2ncccn2)CC1` [Example 56, 1-(6-Chloro-3-(4-(pyrimidin-2-yl)piperazine-1-carbonyl)benzyl)quinazoline-2,4(1H,3H)-dione] are 16 nM, 30 nM and 1180 nM.
The corresponding values for `O=C(c1cc(Cn2c(=O)[nH]c(=O)c3ccccc32)ccc1Cl)N1CCN(c2ncccn2)CC1` [Example 65, 1-(4-Chloro-3-(4-(pyrimidin-2-yl)piperazine-1-carbonyl)benzyl)quinazoline-2,4(1H,3H)-dione] are 373 nM, 417 nM and 3190 nM.
The corresponding values for `O=C(c1cccc(Cn2c(=O)[nH]c(=O)c3ccccc32)n1)N1CCN(C(=O)C2CCCC2)CC1` [Example 69, 1-((2-(4-(Cyclopentylcarbonyl)piperazine-1-carbonyl)pyridin-6-yl)methyl)quinazoline-2,4(1H,3H)-dione] are 76 nM, 352 nM and 1980 nM.
Regarding `O=C(c1cccc(Cn2c(=O)[nH]c(=O)c3ccccc32)n1)N1CCN(c2ccccn2)CC1` [Example 70, 1-((2-(4-(Pyridin-2-yl)piperazine-1-carbonyl)pyridin-6-yl)methyl)quinazoline-2,4(1H,3H)-dione], the EC50 in experiment [1] stood at 34 nM. Besides, the figures for the IC50 in experiment [2] and in experiment [3] were 136 nM and 339 nM, respectively.
The corresponding values for `Cc1ccc2c(c1)c(=O)[nH]c(=O)n2Cc1cccc(C(=O)N2CCN(c3ncccn3)CC2)c1` [Example 81, 6-Methyl-1-(3-(4-(pyrimidin-2-yl)piperazine-1-carbonyl)benzyl)quinazoline-2,4(1H,3H)-dione] are 63 nM, 99 nM and 421 nM.
For `Cc1ccc2c(c1)c(=O)[nH]c(=O)n2Cc1ccc(F)c(C(=O)N2CCN(c3ncccn3)CC2)c1` [Example 83, 1-(4-Fluoro-3-(4-(pyrimidin-2-yl)piperazine-1-carbonyl)benzyl)-6-methylquinazoline-2,4(1H,3H)-dione] the same measures were 21 nM, 72 nM and 746 nM.
The corresponding values for `Cc1ccc2c(c1)c(=O)[nH]c(=O)n2Cc1ccc(F)c(C(=O)N2CCN(C(=O)C3CCCC3)CC2)c1` [Example 85, 1-(3-(4-(Cyclopentylcarbonyl)piperazine-1-carbonyl)-4-fluorobenzyl)-6-methylquinazoline-2,4(1H,3H)-dione] are 7.6 nM, 25 nM and 291 nM.
`O=C(c1cccc(Cn2c(=O)[nH]c(=O)c3c(Cl)cccc32)c1)N1CCN(c2ncccn2)CC1` [Example 100, 5-Chloro-1-(3-(4-(pyrimidin-2-yl)piperazine-1-carbonyl)benzyl)quinazoline-2,4(1H,3H)-dione]: in experiment [1], the EC50 was determined as 70 nM. The IC50 in experiment [2] amounted to 202 nM; in experiment [3], 312 nM.
The corresponding values for `O=C(c1cccc(Cn2c(=O)[nH]c(=O)c3c(Cl)cccc32)c1)N1CCN(C(=O)C2CCCC2)CC1` [Example 101, 5-Chloro-1-(3-(4-(cyclopentylcarbonyl)piperazine-1-carbonyl)benzyl)quinazoline-2,4(1H,3H)-dione] are 20 nM, 117 nM and 1050 nM.
For `O=C(c1cc(Cn2c(=O)[nH]c(=O)c3c(Cl)cccc32)ccc1F)N1CCN(c2ncccn2)CC1` [Example 103, 5-Chloro-1-(4-fluoro-3-(4-(pyrimidin-2-yl)piperazine-1-carbonyl)benzyl)quinazoline-2,4(1H,3H)-dione], in experiment [1], the EC50 came out at 29 nM. Besides, the results for the IC50 in experiment [2] and in experiment [3] were 45 nM and 665 nM, respectively.
For `O=C(c1cc(Cn2c(=O)[nH]c(=O)c3c(Cl)cccc32)ccc1F)N1CCN(C(=O)C2CCCC2)CC1` [Example 104, 5-Chloro-1-(3-(4-(cyclopentylcarbonyl)piperazine-1-carbonyl)-4-fluorobenzyl)quinazoline-2,4(1H,3H)-dione] the same measures were 2.6 nM, 8.3 nM and 452 nM.
The corresponding values for `O=C(c1cc(Cn2c(=O)[nH]c(=O)c3c(Cl)cccc32)ccc1F)N1CCN(C(=O)C2CCCCC2)CC1` [Example 105, 5-Chloro-1-(3-(4-(cyclohexylcarbonyl)piperazine-1-carbonyl)-4-fluorobenzyl)quinazoline-2,4(1H,3H)-dione] are 14 nM, 7.9 nM and 97 nM.
For `O=C(c1cccs1)N1CCN(C(=O)c2cc(Cn3c(=O)[nH]c(=O)c4c(Cl)cccc43)ccc2F)CC1` [Example 107, 5-Chloro-1-(4-fluoro-3-(4-(thiophene-2-carbonyl)piperazine-1-carbonyl)benzyl)quinazoline-2,4(1H,3H)-dione] the same measures were 9.5 nM, 6.3 nM and 161 nM.
On to `O=C(c1cccc(Cn2c(=O)[nH]c(=O)c3cc(Cl)ccc32)c1)N1CCN(c2ncccn2)CC1` [Example 111, 6-Chloro-1-(3-(4-(pyrimidin-2-yl)piperazine-1-carbonyl)benzyl)quinazoline-2,4(1H,3H)-dione], for which the EC50 in experiment [1] was 1.7 nM. Also, the IC50 in experiment [2] was 27 nM; in experiment [3], 77 nM.
The corresponding values for `O=C(c1cccc(Cn2c(=O)[nH]c(=O)c3cc(Cl)ccc32)c1)N1CCN(C(=O)C2CCCC2)CC1` [Example 112, 6-Chloro-1-(3-(4-(cyclopentylcarbonyl)piperazine-1-carbonyl)benzyl)quinazoline-2,4(1H,3H)-dione] are 2.9 nM, 14 nM and 767 nM.
Turning to `O=C(c1cccc(Cn2c(=O)[nH]c(=O)c3cc(Cl)ccc32)c1)N1CCN(C(=O)C2CCCCC2)CC1` [Example 113, 6-Chloro-1-(3-(4-(cyclohexylcarbonyl)piperazine-1-carbonyl)benzyl)quinazoline-2,4(1H,3H)-dione], the EC50 in experiment [1] came out at 17 nM. For the same compound, the IC50 in experiment [2] was 9.6 nM; in experiment [3] it was 170 nM.
With `O=C(c1cc(Cn2c(=O)[nH]c(=O)c3cc(Cl)ccc32)ccc1F)N1CCN(c2ncccn2)CC1` [Example 117, 6-Chloro-1-(4-fluoro-3-(4-(pyrimidin-2-yl)piperazine-1-carbonyl)benzyl)quinazoline-2,4(1H,3H)-dione], in experiment [1], the EC50 is 5.8 nM. The IC50 in experiment [2] was 5.1 nM; in experiment [3], 39 nM.
For `O=C(c1cc(Cn2c(=O)[nH]c(=O)c3cc(Cl)ccc32)ccc1F)N1CCN(C(=O)C2CCCC2)CC1` [Example 118, 6-Chloro-1-(3-(4-(cyclopentylcarbonyl)piperazine-1-carbonyl)-4-fluorobenzyl)quinazoline-2,4(1H,3H)-dione] the same measures were 3.1 nM, 0.82 nM and 54 nM.
For `O=C(c1cc(Cn2c(=O)[nH]c(=O)c3cc(Cl)ccc32)ccc1F)N1CCN(C(=O)C2CCCCC2)CC1` [Example 119, 6-Chloro-1-(3-(4-(cyclohexylcarbonyl)piperazine-1-carbonyl)-4-fluorobenzyl)quinazoline-2,4(1H,3H)-dione] the same measures were 3 nM, 0.72 nM and 56 nM.
On to `O=C(c1ccc(F)c(Cn2c(=O)[nH]c(=O)c3cc(Cl)ccc32)c1)N1CCN(c2ncccn2)CC1` [Example 123, 6-Chloro-1-(6-fluoro-3-(4-(pyrimidin-2-yl)piperazine-1-carbonyl)benzyl)quinazoline-2,4(1H,3H)-dione], for which the EC50 in experiment [1] is 11 nM. Moreover, the figures for the IC50 in experiment [2] and in experiment [3] were 15 nM and 111 nM, respectively.

For orientation: EC50 means the concentration needed to bring the measured effect to its halfway point.
